Experimental data taken from patent publication US5565200A, “Pharmaceutical preparations derived from korean mistletoe” (priority 1995, dated 1996).

Assays:
[1] = Weight change of tumor-bearing mice to assess toxic effects; type: in vivo; conditions: 98 mg/kg, i.p., qd (1,7,14,21)
Source text: (§1) Anticancer activities of n-T4GEN were studied in animals bearing subcutaneous transplants of C3H Mammary adenocarcinoma 16/C. This tumor is maintained as a lung passed tumor in C3H female mice. In this example, tumors (1×10^6 cells) were transplanted (S.C.) in 18-20 g B6C3F^1 hybrid female mice. On the following day, the tumor bearing animals were randomized and separated into different treatment groups (10 mice per group). There were 15 animals in the control group who received only physiological saline during the treatment periods. The treatments (i.p.) were started 48 hours after the transplants and given for a duration of 14 days (daily single injections). Animals were weighed on days 5, 9 and 14 to assess toxic effects. Tumors were measured on days 21, 28 post transplants and the results are represented as tumor weights using formula [formula]

[2] = system: C3H Mammary adenocarcinoma 16/C; test: Growth of subcutaneous transplants of C3H mammary adenocarcinoma 16/C in B6C3F1 female mice; type: in vivo; conditions: 98 mg/kg, i.p., qd (1,7,14,21)
Source text: as §1, with “The treatments (i.p.) were started 48 hours after the transplants and given for a duration of 14 days (daily single injections).” left out

Question: What does the source list for `O=c1[nH]cc(F)c(=O)[nH]1` [5Fluorouracil]?
Answer: Δ Wts (g) (day 14) [1]: +1.77 g; Tumor Free Animals (day 93) [2]: 0/6; Tumor Inhibition % [2]: 100%; Tumor Wts (day 21) [2]: 0.00
